Laboratory results from PubChem BioAssay (NCI).
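Interpolation was linear, between the two tested concentrations surrounding the appropriate level; five concentrations were tested over 48 hours in 96-well plates. GI50 marks 50% less growth. TGI: total growth inhibition.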

Experiments:
Assay in all cases: DTP human tumour cell line panel, 48 h
ACHN renal = test system: ACHN renal
OVCAR-3 ovarian = test system: OVCAR-3 ovarian
HOP-62 NSCLC = test system: HOP-62 NSCLC
DU-145 prostate = test system: DU-145 prostate
OVCAR-4 ovarian = test system: OVCAR-4 ovarian
HCC-2998 colon = test system: HCC-2998 colon
UO-31 renal = test system: UO-31 renal
LOX IMVI melanoma = test system: LOX IMVI melanoma
HS 578T breast = test system: HS 578T breast
HCT-116 colon = test system: HCT-116 colon
U251 CNS = test system: U251 CNS
CCRF-CEM leukemia = test system: CCRF-CEM leukemia
K-562 leukemia = test system: K-562 leukemia
COLO 205 colon = test system: COLO 205 colon
SNB-75 CNS = test system: SNB-75 CNS
NCI-H522 lung = test system: NCI-H522 lung
A549 NSCLC = test system: A549 NSCLC
MCF7 breast = test system: MCF7 breast
UACC-62 melanoma = test system: UACC-62 melanoma
HT29 colon = test system: HT29 colon
A498 renal = test system: A498 renal
MDA-MB-231 breast = test system: MDA-MB-231 breast
IGROV1 ovarian = test system: IGROV1 ovarian
MOLT-4 leukemia = test system: MOLT-4 leukemia
SR leukemia = test system: SR leukemia
CAKI-1 renal = test system: CAKI-1 renal
SW-620 colon = test system: SW-620 colon
M14 melanoma = test system: M14 melanoma

For CCCCCCCNc1nc(C(=O)OCC)ncc1-c1ccc(C(F)(F)F)cc1, the GI50 (ACHN renal) was 32 µM, the TGI (ACHN renal) was > 100 µM and the GI50 (OVCAR-3 ovarian) was 32.6 µM. For the same compound, the TGI (OVCAR-3 ovarian) was > 100 µM, the GI50 (HOP-62 NSCLC) was 55.7 µM and the TGI (HOP-62 NSCLC) was > 100 µM. For the same compound, the GI50 (DU-145 prostate) was 46.1 µM, the TGI (DU-145 prostate) was > 100 µM and the GI50 (OVCAR-4 ovarian) was 13.8 µM. For the same compound, the TGI (OVCAR-4 ovarian) was > 100 µM, the GI50 (HCC-2998 colon) was 41.5 µM and the TGI (HCC-2998 colon) was > 100 µM. The GI50 (UO-31 renal) was 16.4 µM, the TGI (UO-31 renal) was 77.1 µM and the GI50 (LOX IMVI melanoma) was 40.9 µM. The TGI (LOX IMVI melanoma) was > 100 µM, the GI50 (HS 578T breast) was 46.6 µM and the TGI (HS 578T breast) was > 100 µM. The GI50 (HCT-116 colon) was 32 µM, the TGI (HCT-116 colon) was > 100 µM and the GI50 (U251 CNS) was 34.1 µM. The TGI (U251 CNS) was > 100 µM, the GI50 (CCRF-CEM leukemia) was 29.5 µM and the TGI (CCRF-CEM leukemia) was > 100 µM. For the same compound, the GI50 (K-562 leukemia) was 36.8 µM, the TGI (K-562 leukemia) was > 100 µM and the GI50 (COLO 205 colon) was 26.8 µM. The TGI (COLO 205 colon) was 88.1 µM, the GI50 (SNB-75 CNS) was 41.7 µM and the TGI (SNB-75 CNS) was > 100 µM. For the same compound, the GI50 (NCI-H522 lung) was 31.3 µM, the TGI (NCI-H522 lung) was > 100 µM and the GI50 (A549 NSCLC) was > 100 µM. The TGI (A549 NSCLC) was > 100 µM, the GI50 (MCF7 breast) was 28.1 µM and the TGI (MCF7 breast) was > 100 µM. The GI50 (UACC-62 melanoma) was 25.2 µM, the TGI (UACC-62 melanoma) was > 100 µM and the GI50 (HT29 colon) was 41.5 µM. For the same compound, the TGI (HT29 colon) was > 100 µM, the GI50 (A498 renal) was 16 µM and the TGI (A498 renal) was > 100 µM. The GI50 (MDA-MB-231 breast) was 33.3 µM, the TGI (MDA-MB-231 breast) was > 100 µM and the GI50 (IGROV1 ovarian) was 24.7 µM. It also gave a TGI (IGROV1 ovarian) of 70.9 µM, a GI50 (MOLT-4 leukemia) of 34.4 µM and a TGI (MOLT-4 leukemia) of 96.2 µM. The GI50 (SR leukemia) was 35.5 µM, the TGI (SR leukemia) was > 100 µM and the GI50 (CAKI-1 renal) was 38.2 µM. For the same compound, the TGI (CAKI-1 renal) was > 100 µM, the GI50 (SW-620 colon) was 41.5 µM and the TGI (SW-620 colon) was > 100 µM. The GI50 (M14 melanoma) was 35.8 µM and the TGI (M14 melanoma) was > 100 µM.
